Assay results as given in US20050148069A1, “IGF-1 instructs multipotent adult CNS neural stem cells to an oligodendroglial lineage” (priority 2003, published 2005).

Columns and labels:
[1] = tested on: multipotent neural progenitor cells derived from the whole brain of P10 ICR mice; test: differentiation of whole brain-derived multipotent neural progenitor cells; format: cell-based, mouse; settings: IGF-I treatment, primary cultures (unpublished data)
Experimental: The neural progenitor cells isolated from the hippocampus of female Fischer 344 used in this study have been characterized previously (Gage et al., 1995; Palmer et al., 1997). The whole brain-derived neural stem cells from PIO ICR mice were isolated and cultured according to the methods as described, with slight modifications. Cells were cultured as previously described (Gage et al., 1995; Ray et al., 1993). Cells between passages 10 and 20 were used for in vitro differentiation analyses. To induce differentiation, cells were plated into 4-well chamber slides at a density of 55,000-75,000 cells per well and were allowed to proliferate in N2-supplemented (Invitrogen) DMEM:F12 (Omega Scientific) medium containing 20 ng/ml FGF-2 (PeproTech, Inc.) for 24 hours. FGF-2 was then withdrawn and cells were subsequently treated with differentiation media. […] For IGF-induction experiments, cells were trypsinized, washed with 1× PBS, and plated into insulin-free N2 medium. Either human recombinant IGF-I or IGF-II (500 ng/ml; R&D Systems) or insulin (500 ng/ml; Sigma) was added for 4 days, except when indicated otherwise. In some cultures, BrdU (2.5 μM, Sigma) was added to label dividing cells, and Q-VD-OPh (2 μM, Enzyme Systems Products) was added to prevent apoptosis.

[2] = tested on: adult hippocampus-derived neural progenitor cells; test: mathematical model of proliferation and differentiation rates; parameters: species or system rat; settings: 500 ng/ml IGF-I
Description: Therefore, to separate the IGF-I effects on proliferation of progenitors from the instructive differentiation of progenitors to oligodendrocytes, we developed a mathematical model (as shown in FIG. 4A). This modeling approach has previously been used to quantify the effects of hippocampal astrocytes on the proliferation and neuronal differentiation of adult neural progenitor cells (Song et al., 2002). To distinguish the proliferation and differentiation rates, the model required that we count the number of RIP+ cells that were either positive or negative for BrdU at each time point. […] Because of this finding, we decided to separate the proliferation rate of RIP− (defined as α) and RIP+ cells (γ), as well as the differentiation rate (β) of RIP− to RIP+ cells. The overall death rate measured by Hoechst dye in live cultures could not be experimentally separated into a RIP− death rate (δ) and a RIP+ death rate (ε) (Song et al., 2002). Therefore, the model was bounded by the two possibilities that all cell death is from only RIP− or only RIP+ cells. We also considered the more probable assumption that the death rates for both RIP− and RIP+ cells were equal.
Six equations were used to derive values for these rates. The first equation describes the differential gain in RIP− cells: dN^RIP−/dt=(α−δ)N^RIP−−βN^RIP− (b 1) where N^RIP−is the number of RIP− cells, α is the proliferation rate of RIP− cells (per 12-h interval), β is the differentiation rate of RIP− into RIP+ cells, and δ is the death rate of RIP− cells. Similarly for RIP+ cells, dN^RIP+/dt=(γ−ε)N^RIP++βN^RIP− (2) where N^RIP+ is the number of RIP+ cells, […] is a proliferation rate of RIP+ cells, and ε is the RIP+ death rate. The sum of (1) and (2) is the equation defining total cell count: dN^Total/dt=(α−δ)N^RIP−+(γ−ε)N^RIP+ (3)
The time-course experiments were performed in 12-h intervals, allowing for measurement of the proliferation and differentiation rates at each 12-h time interval—αi is the proliferation rate of RIP− cells at time ‘i’ and so forth. […]

IGF-I: human recombinant IGF-I (R&D Systems), growth factor polypeptide
differentiation into oligodendrocytes [1]: exhibited a preferential differentiation into oligodendrocytes
differentiation rate (β) of RIP− to RIP+ cells [2]: increase in differentiation rate
proliferation rate (γ) of RIP+ cells [2]: increase in the proliferation rate
proliferation rate of RIP− cells (α) [2]: no increase in the proliferation rate of RIP− cells
